Measured values taken from the kinase profiling compilation of Christmann-Franck et al. (2016).

Legend:
Assay in all cases: radiometric filter-binding kinase assay
[1] = tested on: AKT1 (human), P31749 [S473D]
BTK (human) = BTK (human) (UniProt Q06187)
CSNK2A1 (human) = CSNK2A1 (human) (UniProt P68400)
CaMK1 (human) = CaMK1 (human) (UniProt Q14012)
DAPK1 (human) = DAPK1 (human) (UniProt P53355)
DYRK1A (human) = DYRK1A (human) (UniProt Q13627)
DYRK2 (human) = DYRK2 (human) (UniProt Q92630)
DYRK3 (human) = DYRK3 (human) (UniProt O43781)
EEF2K (human) = EEF2K (human) (UniProt O00418)
EPHA2 (human) = EPHA2 (human) (UniProt P29317)
EPHB3 (human) = EPHB3 (human) (UniProt P54753)
ERBB4 (human) = ERBB4 (human) (UniProt Q15303)
HIPK1 (human) = HIPK1 (human) (UniProt Q86Z02)
HIPK2 (human) = HIPK2 (human) (UniProt Q9H2X6)
HIPK3 (human) = HIPK3 (human) (UniProt Q9H422)
IKBKE (human) = IKBKE (human) (UniProt Q14164)
LCK (mouse) = settings: accession and sequence are those of the human protein
MAP3K9 (human) = MAP3K9 (human) (UniProt P80192)
MAPK11 (human) = MAPK11 (human) (UniProt Q15759)
MAPK13 (human) = MAPK13 (human) (UniProt O15264)
Chain of MAPK13 (human) (O15264 whole entry, looked up): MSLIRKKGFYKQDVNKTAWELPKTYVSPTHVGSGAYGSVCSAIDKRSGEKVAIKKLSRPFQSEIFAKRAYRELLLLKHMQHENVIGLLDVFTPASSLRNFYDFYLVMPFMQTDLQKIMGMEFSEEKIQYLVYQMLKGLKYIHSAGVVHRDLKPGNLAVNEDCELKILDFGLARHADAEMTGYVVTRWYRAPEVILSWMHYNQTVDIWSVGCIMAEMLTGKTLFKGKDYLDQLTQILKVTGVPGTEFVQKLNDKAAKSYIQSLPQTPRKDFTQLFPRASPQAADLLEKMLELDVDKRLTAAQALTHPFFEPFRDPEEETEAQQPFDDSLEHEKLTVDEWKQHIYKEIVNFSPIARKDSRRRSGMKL

MAPK14 (human) = MAPK14 (human) (UniProt Q16539)
Chain of MAPK14 (human) (Q16539 whole entry, looked up): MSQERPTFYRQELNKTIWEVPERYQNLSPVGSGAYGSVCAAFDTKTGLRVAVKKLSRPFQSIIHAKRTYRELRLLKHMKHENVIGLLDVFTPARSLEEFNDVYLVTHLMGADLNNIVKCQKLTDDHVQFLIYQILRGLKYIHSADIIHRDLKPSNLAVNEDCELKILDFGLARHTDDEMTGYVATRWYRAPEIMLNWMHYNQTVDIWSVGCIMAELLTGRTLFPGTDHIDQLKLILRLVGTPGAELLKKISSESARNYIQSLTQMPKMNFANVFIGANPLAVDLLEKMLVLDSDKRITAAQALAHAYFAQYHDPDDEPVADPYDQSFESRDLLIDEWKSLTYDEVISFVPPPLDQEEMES

MAPKAPK5 (human) = MAPKAPK5 (human) (UniProt Q8IW41)
Chain of MAPKAPK5 (human) (Q8IW41 whole entry, looked up): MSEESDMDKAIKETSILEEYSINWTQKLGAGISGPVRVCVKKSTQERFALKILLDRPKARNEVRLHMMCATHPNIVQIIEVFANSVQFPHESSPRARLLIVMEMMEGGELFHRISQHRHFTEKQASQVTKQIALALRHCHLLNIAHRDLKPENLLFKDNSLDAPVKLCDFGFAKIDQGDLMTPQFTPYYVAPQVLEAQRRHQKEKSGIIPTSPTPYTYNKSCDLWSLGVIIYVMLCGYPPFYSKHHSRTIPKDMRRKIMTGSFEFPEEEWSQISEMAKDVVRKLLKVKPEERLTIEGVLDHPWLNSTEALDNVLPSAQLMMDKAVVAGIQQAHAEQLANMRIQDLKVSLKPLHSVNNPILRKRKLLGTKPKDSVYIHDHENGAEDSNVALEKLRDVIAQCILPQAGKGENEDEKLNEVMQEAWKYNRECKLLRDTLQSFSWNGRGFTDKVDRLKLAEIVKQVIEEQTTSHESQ

MARK1 (human) = MARK1 (human) (UniProt Q9P0L2)
MARK3 (human) = MARK3 (human) (UniProt P27448)
Chain of MARK3 (human) (P27448 whole entry, looked up): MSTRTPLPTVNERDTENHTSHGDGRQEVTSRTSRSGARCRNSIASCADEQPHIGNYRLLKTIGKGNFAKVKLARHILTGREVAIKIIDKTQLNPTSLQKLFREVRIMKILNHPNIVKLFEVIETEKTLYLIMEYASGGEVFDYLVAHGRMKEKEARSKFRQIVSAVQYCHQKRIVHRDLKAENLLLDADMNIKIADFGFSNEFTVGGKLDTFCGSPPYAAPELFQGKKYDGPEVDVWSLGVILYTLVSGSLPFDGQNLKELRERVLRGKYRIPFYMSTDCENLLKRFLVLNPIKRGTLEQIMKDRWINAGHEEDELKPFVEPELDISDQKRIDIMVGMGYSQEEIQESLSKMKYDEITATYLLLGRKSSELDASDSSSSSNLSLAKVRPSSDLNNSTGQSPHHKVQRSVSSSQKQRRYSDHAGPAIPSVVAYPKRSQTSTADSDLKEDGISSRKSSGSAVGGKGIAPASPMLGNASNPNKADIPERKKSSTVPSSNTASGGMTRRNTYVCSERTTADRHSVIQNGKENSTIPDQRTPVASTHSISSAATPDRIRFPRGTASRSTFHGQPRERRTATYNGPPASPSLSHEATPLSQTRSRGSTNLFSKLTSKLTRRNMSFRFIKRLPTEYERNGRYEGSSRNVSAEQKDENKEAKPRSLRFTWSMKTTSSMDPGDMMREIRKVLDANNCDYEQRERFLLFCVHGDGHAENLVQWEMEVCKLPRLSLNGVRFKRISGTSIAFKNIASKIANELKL

MST4 (human) = MST4 (human) (UniProt Q9P289)
NEK6 (human) = NEK6 (human) (UniProt Q9HC98)
NUAK1 (human) = NUAK1 (human) (UniProt O60285)
PAK4 (human) = PAK4 (human) (UniProt O96013)
PAK6 (human) = PAK6 (human) (UniProt Q9NQU5)
Chain of PAK6 (human) (Q9NQU5 whole entry, looked up): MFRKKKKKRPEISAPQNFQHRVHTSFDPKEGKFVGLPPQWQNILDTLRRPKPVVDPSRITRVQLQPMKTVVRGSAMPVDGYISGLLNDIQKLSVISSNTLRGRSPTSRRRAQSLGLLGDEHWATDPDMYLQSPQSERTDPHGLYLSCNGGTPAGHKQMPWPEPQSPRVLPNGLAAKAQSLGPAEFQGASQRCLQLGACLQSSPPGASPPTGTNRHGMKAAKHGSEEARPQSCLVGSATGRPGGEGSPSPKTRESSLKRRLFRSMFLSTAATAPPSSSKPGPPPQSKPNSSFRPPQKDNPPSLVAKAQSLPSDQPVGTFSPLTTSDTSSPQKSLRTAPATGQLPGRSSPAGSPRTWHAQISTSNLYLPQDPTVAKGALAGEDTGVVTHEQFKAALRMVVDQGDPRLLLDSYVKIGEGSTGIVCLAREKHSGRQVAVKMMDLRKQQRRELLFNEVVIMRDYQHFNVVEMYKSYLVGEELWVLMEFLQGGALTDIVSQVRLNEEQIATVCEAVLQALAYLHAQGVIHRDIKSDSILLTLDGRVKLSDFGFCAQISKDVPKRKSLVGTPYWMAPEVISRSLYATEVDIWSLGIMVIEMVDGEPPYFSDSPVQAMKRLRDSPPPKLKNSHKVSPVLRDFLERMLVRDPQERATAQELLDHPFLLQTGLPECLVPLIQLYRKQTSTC

PAK7 (human) = PAK7 (human) (UniProt Q9P286)
PRKCZ (human) = PRKCZ (human) (UniProt Q05513)
ROCK2 (rat) = settings: accession and sequence are those of the human protein
RPS6KA5 KD1 KD2 (human) = RPS6KA5 KD1 KD2 (human) (UniProt O75582)
Chain of RPS6KA5 KD1 KD2 (human) (O75582 whole entry, looked up): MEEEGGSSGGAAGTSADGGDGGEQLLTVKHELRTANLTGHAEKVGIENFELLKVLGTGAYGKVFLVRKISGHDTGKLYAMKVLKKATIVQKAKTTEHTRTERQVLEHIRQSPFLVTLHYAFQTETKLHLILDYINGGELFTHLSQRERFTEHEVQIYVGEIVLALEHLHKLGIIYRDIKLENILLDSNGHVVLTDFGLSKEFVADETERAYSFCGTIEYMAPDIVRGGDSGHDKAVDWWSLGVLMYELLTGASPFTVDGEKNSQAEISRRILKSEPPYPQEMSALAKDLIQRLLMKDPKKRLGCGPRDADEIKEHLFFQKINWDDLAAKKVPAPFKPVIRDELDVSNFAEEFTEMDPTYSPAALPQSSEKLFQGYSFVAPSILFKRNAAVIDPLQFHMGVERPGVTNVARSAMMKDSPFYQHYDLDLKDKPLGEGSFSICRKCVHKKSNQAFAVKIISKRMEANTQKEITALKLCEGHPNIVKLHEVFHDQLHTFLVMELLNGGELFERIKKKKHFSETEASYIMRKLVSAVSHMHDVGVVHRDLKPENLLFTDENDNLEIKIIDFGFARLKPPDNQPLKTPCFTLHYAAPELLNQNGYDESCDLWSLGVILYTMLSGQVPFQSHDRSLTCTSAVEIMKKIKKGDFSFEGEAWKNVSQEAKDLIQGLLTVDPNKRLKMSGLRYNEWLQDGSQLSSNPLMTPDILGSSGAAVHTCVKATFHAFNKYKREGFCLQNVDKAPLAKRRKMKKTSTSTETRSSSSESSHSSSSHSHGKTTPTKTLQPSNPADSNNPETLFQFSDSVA

Chain of DAPK1 (human) (P53355 whole entry, looked up): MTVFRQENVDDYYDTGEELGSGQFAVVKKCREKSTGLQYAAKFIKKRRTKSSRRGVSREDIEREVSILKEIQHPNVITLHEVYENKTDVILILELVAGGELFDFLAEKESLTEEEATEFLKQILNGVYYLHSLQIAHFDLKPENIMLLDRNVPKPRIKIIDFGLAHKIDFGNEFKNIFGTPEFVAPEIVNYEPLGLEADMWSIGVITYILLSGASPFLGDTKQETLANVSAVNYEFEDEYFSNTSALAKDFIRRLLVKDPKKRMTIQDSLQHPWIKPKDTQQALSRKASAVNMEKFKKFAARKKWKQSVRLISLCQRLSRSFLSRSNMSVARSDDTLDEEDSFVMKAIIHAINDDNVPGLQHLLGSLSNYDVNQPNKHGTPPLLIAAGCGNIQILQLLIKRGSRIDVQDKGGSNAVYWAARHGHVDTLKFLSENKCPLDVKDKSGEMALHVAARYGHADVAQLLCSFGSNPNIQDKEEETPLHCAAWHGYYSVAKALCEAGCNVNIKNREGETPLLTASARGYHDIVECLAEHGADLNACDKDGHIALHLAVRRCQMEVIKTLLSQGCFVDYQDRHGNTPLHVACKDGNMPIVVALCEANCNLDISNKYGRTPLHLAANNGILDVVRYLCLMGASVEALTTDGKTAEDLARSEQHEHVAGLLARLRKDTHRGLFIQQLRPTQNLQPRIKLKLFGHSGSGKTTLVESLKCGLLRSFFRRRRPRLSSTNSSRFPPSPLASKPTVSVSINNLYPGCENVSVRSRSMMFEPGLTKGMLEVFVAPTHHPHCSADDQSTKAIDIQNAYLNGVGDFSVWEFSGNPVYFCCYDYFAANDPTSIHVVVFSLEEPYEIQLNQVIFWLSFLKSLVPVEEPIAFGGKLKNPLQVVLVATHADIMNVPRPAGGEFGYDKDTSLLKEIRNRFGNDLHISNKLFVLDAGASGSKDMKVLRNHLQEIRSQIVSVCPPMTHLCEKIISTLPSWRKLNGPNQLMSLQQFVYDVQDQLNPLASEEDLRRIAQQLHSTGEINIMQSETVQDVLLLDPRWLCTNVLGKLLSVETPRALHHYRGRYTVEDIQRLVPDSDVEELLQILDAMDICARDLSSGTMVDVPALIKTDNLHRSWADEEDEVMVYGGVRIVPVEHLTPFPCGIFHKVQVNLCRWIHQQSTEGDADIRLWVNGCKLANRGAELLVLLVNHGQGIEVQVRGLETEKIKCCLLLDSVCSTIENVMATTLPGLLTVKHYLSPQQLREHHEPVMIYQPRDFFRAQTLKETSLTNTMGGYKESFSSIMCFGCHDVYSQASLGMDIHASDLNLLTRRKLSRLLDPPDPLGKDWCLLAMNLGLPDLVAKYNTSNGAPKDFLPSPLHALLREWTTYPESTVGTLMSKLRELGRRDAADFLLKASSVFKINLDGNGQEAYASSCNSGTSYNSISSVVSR

SMILES: NC(=O)c1cc2c(-c3cccc(-c4ccccc4)c3)cnc(N)c2s1
- residual activity ([1]; compound 0.1 µM): 105%
- residual activity ([1]; compound 1.0 µM): 104%
- residual activity ([1]; compound 10.0 µM): 108%
- residual activity (BTK (human); compound 1.0 µM): 94%
- residual activity (BTK (human); compound 10.0 µM): 30%
- residual activity (CSNK2A1 (human); compound 0.1 µM): 91%
- residual activity (CSNK2A1 (human); compound 1.0 µM): 94%
- residual activity (CSNK2A1 (human); compound 10.0 µM): 100%
- residual activity (CaMK1 (human); compound 0.1 µM): 107%
- residual activity (CaMK1 (human); compound 1.0 µM): 90%
- residual activity (CaMK1 (human); compound 10.0 µM): 38%
- residual activity (DAPK1 (human); compound 0.1 µM): 76%
- residual activity (DAPK1 (human); compound 1.0 µM): 40%
- residual activity (DAPK1 (human); compound 10.0 µM): 10%
- residual activity (DYRK1A (human); compound 0.1 µM): 72%
- residual activity (DYRK1A (human); compound 1.0 µM): 21%
- residual activity (DYRK1A (human); compound 10.0 µM): 5%
- residual activity (DYRK2 (human); compound 0.1 µM): 101%
- residual activity (DYRK2 (human); compound 1.0 µM): 77%
- residual activity (DYRK2 (human); compound 10.0 µM): 88%
- residual activity (DYRK3 (human); compound 0.1 µM): 97%
- residual activity (DYRK3 (human); compound 1.0 µM): 76%
- residual activity (DYRK3 (human); compound 10.0 µM): 59%
- residual activity (EEF2K (human); compound 0.1 µM): 124%
- residual activity (EEF2K (human); compound 1.0 µM): 114%
- residual activity (EEF2K (human); compound 10.0 µM): 117%
- residual activity (EPHA2 (human); compound 0.1 µM): 87%
- residual activity (EPHA2 (human); compound 1.0 µM): 78%
- residual activity (EPHA2 (human); compound 10.0 µM): 86%
- residual activity (EPHB3 (human); compound 0.1 µM): 128%
- residual activity (EPHB3 (human); compound 1.0 µM): 113%
- residual activity (EPHB3 (human); compound 10.0 µM): 92%
- residual activity (ERBB4 (human); compound 1.0 µM): 40%
- residual activity (ERBB4 (human); compound 10.0 µM): 17%
- residual activity (HIPK1 (human); compound 0.1 µM): 86%
- residual activity (HIPK1 (human); compound 1.0 µM): 37%
- residual activity (HIPK1 (human); compound 10.0 µM): 13%
- residual activity (HIPK2 (human); compound 0.1 µM): 64%
- residual activity (HIPK2 (human); compound 1.0 µM): 22%
- residual activity (HIPK2 (human); compound 10.0 µM): 9%
- residual activity (HIPK3 (human); compound 0.1 µM): 76%
- residual activity (HIPK3 (human); compound 1.0 µM): 52%
- residual activity (HIPK3 (human); compound 10.0 µM): 19%
- residual activity (IKBKE (human); compound 0.1 µM): 109%
- residual activity (IKBKE (human); compound 1.0 µM): 86%
- residual activity (IKBKE (human); compound 10.0 µM): 31%
- residual activity (LCK (mouse); compound 0.1 µM): 105%
- residual activity (LCK (mouse); compound 1.0 µM): 88%
- residual activity (LCK (mouse); compound 10.0 µM): 67%
- residual activity (MAP3K9 (human); compound 0.1 µM): 54%
- residual activity (MAP3K9 (human); compound 1.0 µM): 18%
- residual activity (MAP3K9 (human); compound 10.0 µM): 6%
- residual activity (MAPK11 (human); compound 0.1 µM): 96%
- residual activity (MAPK11 (human); compound 1.0 µM): 111%
- residual activity (MAPK11 (human); compound 10.0 µM): 80%
- residual activity (MAPK13 (human); compound 0.1 µM): 83%
- residual activity (MAPK13 (human); compound 1.0 µM): 77%
- residual activity (MAPK13 (human); compound 10.0 µM): 36%
- residual activity (MAPK14 (human); compound 0.1 µM): 110%
- residual activity (MAPK14 (human); compound 1.0 µM): 101%
- residual activity (MAPK14 (human); compound 10.0 µM): 59%
- residual activity (MAPKAPK5 (human); compound 0.1 µM): 87%
- residual activity (MAPKAPK5 (human); compound 1.0 µM): 42%
- residual activity (MAPKAPK5 (human); compound 10.0 µM): 15%
- residual activity (MARK1 (human); compound 0.1 µM): 78%
- residual activity (MARK1 (human); compound 1.0 µM): 66%
- residual activity (MARK1 (human); compound 10.0 µM): 37%
- residual activity (MARK3 (human); compound 0.1 µM): 104%
- residual activity (MARK3 (human); compound 1.0 µM): 69%
- residual activity (MARK3 (human); compound 10.0 µM): 26%
- residual activity (MST4 (human); compound 0.1 µM): 102%
- residual activity (MST4 (human); compound 1.0 µM): 75%
- residual activity (MST4 (human); compound 10.0 µM): 35%
- residual activity (NEK6 (human); compound 0.1 µM): 108%
- residual activity (NEK6 (human); compound 1.0 µM): 98%
- residual activity (NEK6 (human); compound 10.0 µM): 135%
- residual activity (NUAK1 (human); compound 0.1 µM): 81%
- residual activity (NUAK1 (human); compound 1.0 µM): 24%
- residual activity (NUAK1 (human); compound 10.0 µM): 6%
- residual activity (PAK4 (human); compound 0.1 µM): 65%
- residual activity (PAK4 (human); compound 1.0 µM): 18%
- residual activity (PAK4 (human); compound 10.0 µM): 7%
- residual activity (PAK6 (human); compound 0.1 µM): 85%
- residual activity (PAK6 (human); compound 1.0 µM): 70%
- residual activity (PAK6 (human); compound 10.0 µM): 31%
- residual activity (PAK7 (human); compound 0.1 µM): 79%
- residual activity (PAK7 (human); compound 1.0 µM): 37%
- residual activity (PAK7 (human); compound 10.0 µM): 16%
- residual activity (PRKCZ (human); compound 0.1 µM): 108%
- residual activity (PRKCZ (human); compound 1.0 µM): 93%
- residual activity (PRKCZ (human); compound 10.0 µM): 82%
- residual activity (ROCK2 (rat); compound 0.1 µM): 75%
- residual activity (ROCK2 (rat); compound 1.0 µM): 31%
- residual activity (ROCK2 (rat); compound 10.0 µM): 7%
- residual activity (RPS6KA5 KD1 KD2 (human); compound 1.0 µM): 97%
- residual activity (RPS6KA5 KD1 KD2 (human); compound 10.0 µM): 70%

SMILES: Cc1cccc(-c2nn(C(=S)Nc3ccccc3)cc2-c2ccnc3ccccc23)n1
- residual activity ([1]; compound 0.1 µM): 102%
- residual activity ([1]; compound 1.0 µM): 106%
- residual activity (BTK (human); compound 0.1 µM): 110%
- residual activity (BTK (human); compound 1.0 µM): 104%
- residual activity (CSNK2A1 (human); compound 0.1 µM): 102%
- residual activity (CSNK2A1 (human); compound 1.0 µM): 104%
- residual activity (CaMK1 (human); compound 0.1 µM): 103%
- residual activity (CaMK1 (human); compound 1.0 µM): 107%
- residual activity (DAPK1 (human); compound 0.1 µM): 94%
- residual activity (DAPK1 (human); compound 1.0 µM): 90%
- residual activity (DYRK1A (human); compound 0.1 µM): 109%
- residual activity (DYRK1A (human); compound 1.0 µM): 104%
- residual activity (DYRK2 (human); compound 0.1 µM): 100%
- residual activity (DYRK2 (human); compound 1.0 µM): 95%
- residual activity (DYRK3 (human); compound 0.1 µM): 102%
- residual activity (DYRK3 (human); compound 1.0 µM): 93%
- residual activity (EEF2K (human); compound 0.1 µM): 102%
- residual activity (EEF2K (human); compound 1.0 µM): 100%
- residual activity (EPHA2 (human); compound 0.1 µM): 105%
- residual activity (EPHA2 (human); compound 1.0 µM): 92%
- residual activity (EPHB3 (human); compound 0.1 µM): 112%
- residual activity (EPHB3 (human); compound 1.0 µM): 104%
- residual activity (ERBB4 (human); compound 0.1 µM): 104%
- residual activity (ERBB4 (human); compound 1.0 µM): 82%
- residual activity (HIPK1 (human); compound 0.1 µM): 96%
- residual activity (HIPK1 (human); compound 1.0 µM): 98%
- residual activity (HIPK2 (human); compound 0.1 µM): 104%
- residual activity (HIPK2 (human); compound 1.0 µM): 95%
- residual activity (HIPK3 (human); compound 0.1 µM): 105%
- residual activity (HIPK3 (human); compound 1.0 µM): 99%
- residual activity (IKBKE (human); compound 0.1 µM): 112%
- residual activity (IKBKE (human); compound 1.0 µM): 106%
- residual activity (LCK (mouse); compound 0.1 µM): 105%
- residual activity (LCK (mouse); compound 1.0 µM): 62%
- residual activity (MAP3K9 (human); compound 0.1 µM): 96%
- residual activity (MAP3K9 (human); compound 1.0 µM): 86%
- residual activity (MAPK11 (human); compound 0.1 µM): 89%
- residual activity (MAPK11 (human); compound 1.0 µM): 61%
- residual activity (MAPK13 (human); compound 1.0 µM): 94%
- residual activity (MAPK14 (human); compound 0.1 µM): 56%
- residual activity (MAPK14 (human); compound 1.0 µM): 16%
- residual activity (MAPKAPK5 (human); compound 0.1 µM): 113%
- residual activity (MAPKAPK5 (human); compound 1.0 µM): 99%
- residual activity (MARK1 (human); compound 0.1 µM): 107%
- residual activity (MARK1 (human); compound 1.0 µM): 113%
- residual activity (MARK3 (human); compound 0.1 µM): 101%
- residual activity (MARK3 (human); compound 1.0 µM): 98%
- residual activity (MST4 (human); compound 0.1 µM): 95%
- residual activity (MST4 (human); compound 1.0 µM): 99%
- residual activity (NEK6 (human); compound 0.1 µM): 107%
- residual activity (NEK6 (human); compound 1.0 µM): 100%
- residual activity (NUAK1 (human); compound 0.1 µM): 96%
- residual activity (NUAK1 (human); compound 1.0 µM): 84%
- residual activity (PAK4 (human); compound 0.1 µM): 89%
- residual activity (PAK4 (human); compound 1.0 µM): 93%
- residual activity (PAK6 (human); compound 0.1 µM): 111%
- residual activity (PAK6 (human); compound 1.0 µM): 113%
- residual activity (PAK7 (human); compound 0.1 µM): 107%
- residual activity (PAK7 (human); compound 1.0 µM): 102%
- residual activity (PRKCZ (human); compound 0.1 µM): 98%
- residual activity (PRKCZ (human); compound 1.0 µM): 100%
- residual activity (ROCK2 (rat); compound 0.1 µM): 96%
- residual activity (ROCK2 (rat); compound 1.0 µM): 104%
- residual activity (RPS6KA5 KD1 KD2 (human); compound 0.1 µM): 110%
- residual activity (RPS6KA5 KD1 KD2 (human); compound 1.0 µM): 101%
